In US11180767B2, “Protease deficient filamentous fungal cells and methods of use thereof” (GLYKOS FINLAND OY, priority 2012, dated 2021):
Non-standard residues stand in square brackets, D forms with d. Residues, ends and D or L forms follow the SMILES beside them. *: point of attachment. Sta = CC(C)C[C@H](N)[C@@H](O)CC(=O)O; Isovaleryl = CC(C)CC(=O)*

Assays:
[1] = test system: M369 human growth hormone strain; assay: hGH production in 24 well cultures with inhibitors and supplements; format: cell-based, Trichoderma reesei; details: 24 well culture, pH 4.5, day 4 immunoblot
Procedure: To evaluate what inhibitors would best stabilize production of hGH, 24 well cultures of these strains were performed. The M369 human growth hormone strain (Δpep1Δtsp1Δslp1Δgap1Δgap2) was grown along with single components or with combinations of the following: trypsin and subtilisin inhibitor SBTI, the acidic protease inhibitor peptide SIP, the acidic protease inhibitor peptide LIP, the aspartic protease inhibitor pepstatin A free peptide, pepstatin A immobilized to agarose beads, the trypsin and subtilisin inhibitor BBI from lima bean, the […] chymostatin, and BSA. Three independent wells were chosen for control wells where no inhibitors or supplements were added. These two strains were grown in 3 ml of TrMM with diammonium citrate without ammonium sulfate, 100 mM PIPPS, 20 g/L spent grain extract, 40 g/L lactose adjusted to pH 4.5. The 24 well plates were shaken at 800 rpm, 85% humidity, and 28° C. The cultures were grown for 6 days and covered with an air permeable membrane.
Inhibitors were added first on day 1 and then daily beginning on day 3. 100 μl samples were taken from the culture wells beginning on day 3. The mycelium was spun down for 5 minutes at 13 k and the supernatant collected. From the culture supernatant 12 μl was loaded in a 4-20% SDS PAGE gel and immunoblotting made on nitrocellulose with mouse anti-hGH antibody (2 μg/ml) and goat anti-mouse IgG AP conjugated secondary antibody diluted 1:10,000 in TBST.
Estimating the expression levels relative to the 200 ng control sample, the control wells produced between 3-6 mg/L of hGH, the BSA (0.25%)/SIP (50 μM)/8BTI (0.2 mg/ml) treatment produced 24.5 mg/L, the SIP (50 μM)/8BTI (0.2 mg/ml) treatment produced 26.6 mg/L, and the pepstatin A beads/SBTI (0.2 mg/ml) addition yielded 24.5 mg/L of hGH. Therefore, using a combination of inhibitors and additives worked best increasing the production levels by at least 4-fold. The critical parameter was to include an aspartic protease inhibitor into the mix.

[2] = test system: proteases in supernatant from the 6-fold protease deletion strain M400; assay: Protease stability of proteins spiked into supernatant of the 6-fold protease deletion strain; format: biochemical, Trichoderma reesei; details: pepstatin A 50 μM; SBTI 0.2 mg/ml; pH 4.2, 20 hours, 37°C
Procedure: The protease stability of the model proteins IGF1, hGH, and IFNα2b were analyzed by spiking them into supernatant from the 6-fold protease deletion strain (Δpep1Δtsp1Δslp1Δgap1Δgap2Δpep4) M400. The supernatant was collected from a large shake flask culture CAH15. The undiluted supernatant from the shake flask cultivation CAH15 was incubated with the purified model proteins with and without pepstatin A (50 μM) and SBTI (0.2 mg/ml) inhibitors for 20 hours at 37° C. The 5 day culture supernatant pH was around 4.2. The reaction containing 0.05 μg μl of model protein was sampled after 20 hours. 50 mM sodium citrate pH 4.0 spiked with model proteins (0.05 g 1) was used as a buffer control.
From each reaction 10 μl was loaded into an 18% SDS PAGE gel and run for 30 minutes at 200 V. The proteins in the gel were then transferred to nitrocellulose for immunoblotting. The nitrocellulose membrane was blocked for 1 hour at room temperature with 5% milk in TBST buffer. The individual blots were probed with their specific primary antibody to detect the appropriate model protein for 1 hour at room temperature on a shaker. The mouse anti-IGF1 antibody (R&D systems #mab291) was used at 2 μg/ml diluted in TBST. The mouse anti-rhGH antibody (Abeam #ab51232) was used at 2 μg/ml diluted in TBST. The mouse anti-IFNα2b antibody (Abeam #ab9386) was used at 1 μg/ml diluted in TBST. After briefly washing the blot membranes with TBST, the secondary antibody was added for 1 hour at room temperature shaking. The secondary goat anti-mouse AP conjugated antibody (Biorad #170-6520) was diluted 1:10,000 in TBST.
This same spiking experiment as was done with MAB01 to investigate its stability in the 6 protease deletion supernatant with and without inhibitors (FIG. 43). Samples were taken as described above and immunoblotted with an anti-heavy chain AP conjugated antibody (Sigma #A3188). […] There was no obvious benefit having used inhibitors. The antibody was stable in this pH 4.2 supernatant. […]

[3] = test system: SIP purified proteases (PEP2, PEP3, PEP4, PEP5, GAP1, SLP2); assay: Protease activity of SIP purified fractions against casein with inhibitors (EnzChek); format: biochemical, Trichoderma reesei; details: pH 5.5
Procedure: Protease activity was then tested against casein both in the presence and absence of protease inhibitors. Protease activity against casein was tested using the EnzChek protease assay kit (Molecular probes #E6638, green fluorescent casein substrate). The working stock solution was prepared by diluting the stock to 10 μg ml in 50 mM sodium citrate, pH 5.5. The purified protease fractions (10 μl) were diluted with […] of sodium citrate, pH 5.5. 100 μl of the diluted substrate was combined with the diluted protease fractions in a 96 well sample plate. The plate was then covered and kept at 37° C. for one to three hours. Fluorescence readings were taken at one, two, and three hours with a Varioskan fluorescent plate reader (Thermo Scientific) using 485 nm excitation and 530 nm emission.
The SIP inhibitor peptide, pepstatin A, LIP peptide, SBTI, and chymostatin were used as inhibitors. […] SIP, LIP, and pepstatin A were used at a concentration of 60 μM, and SBTI was used at a concentration of 200 μg/ml.

In the case of CC(C)CC(=O)N[C@H](C(=O)N[C@H](C(=O)N[C@@H](CC(C)C)[C@@H](O)CC(=O)N[C@@H](C)C(=O)N[C@@H](CC(C)C)[C@@H](O)CC(=O)O)C(C)C)C(C)C [pepstatin A] (Isovaleryl-VV[Sta]A[Sta]-OH), the “effect on hGH production” value [1] is reported as “negative effect on the growth hormone production”, the “stabilisation of hGH, IFNα2b and IGF1 in supernatant” value [2] is reported as “remarkably stabilized” and the proteases inhibited ([3]; SIP, LIP, pepstatin A 60 μM, SBTI 200 μg/ml) is reported as “inhibited only aspartic proteases”. The “inhibition of SIP purified protease activity against casein” value ([3]; FIG. 11) was “a large portion of the SIP protease activity was inhibited”.
